US12624029B2, “JAK inhibitor compounds, method for synthesizing same and use thereof” (GALDERMA HOLDING SA, priority 2020, dated 2026)

Legend:
[1] = test system: Salmonella typhimurium TA98 and TA100; assay: Mini Ames assay (TA98 and TA100); assay type: cell-based; conditions: for increase in the mean number of revertants: TA98 and TA100, with or without metabolic activation (S9)
Description: The Ames test in micro-method (in 6-well plates=mini Ames) follows the general principles of the standard Ames's technique. The Ames test used strains of bacteria Salmonella typhimurium that carry mutations in the genes involved in histidine synthesis. These strains are auxotrophic mutants, they require histidine for growth but cannot produce it. The assay was used to observe the ability of the test item to induce reverse mutations allowing the bacteria to grow in a histidine-free medium. The number of bacteria that revert and acquire the wild-type ability to grow in the absence of histidine can be estimated by counting the colonies that develop upon incubation. The use of different strains allows the identification of different mechanisms of gene mutation (TA98 for detection of frameshift mutations and TA100 for detection of base pair substitutions).
In a number of cases, the test item itself is not directly mutagenic but its metabolic derivatives are.
A toxicity assessment was performed on complete nutriment agar plate (with histidine) to define the highest concentration to be used in the genotoxicity assay. Solutions were prepared in 100% DMSO. The first concentration analyzed in the well (6-well plate) was 500 μg per plate followed by 7 serial dilutions (2 times factor of dilution). […] The viability of the positive and negative controls was analyzed for each strain, in the presence or absence of metabolic activation system, and were compared with historical data to validate the study. […]
Test items, positive and negative controls were incubated with the 2 bacterial strains. After 48 h incubation at 37° C. with and without metabolic activation (S9), the prototrophic mutant colonies that had grown on the plates were counted. The results were expressed as the mean number of revertants for each condition tested (3 replicates each) and for each concentration of the test item and controls. Induction ration, corresponding to the ratio of revertants in presence of test item versus spontaneous revertant, was determined for each concentration.

[2] = test system: different pharmacological targets; assay: CEREP Safety Screen-44 in vitro pharmacology binding and enzyme/uptake assays; conditions: tested at 10 μM; FIGS. 2-5
Experimental: An in vitro pharmacology assay was conducted to assess the capability of the compounds to interact with different pharmacological targets when tested at 10 μM in different binding and enzyme/uptake assays. The included targets are indicative of potential effects in major organs and drug-drug interactions.
Compound binding was calculated as a % inhibition of the binding of a radioactively labelled ligand specific for each target. Compounds were tested at 1.0E-05 M. Compound enzyme inhibition effect was calculated as a % inhibition of control enzyme activity. Results showing an inhibition or stimulation higher than 50% are considered to represent significant effects of the test compounds.

Structure (SMILES): C=CCCN(C)S(=O)(=O)C[C@H]1C[C@@H](Nc2c(C#N)cnc3[nH]ccc23)C1 [Compound C, N-(But-3-en-1-yl)-1-((cis)-3-((5-cyano-1H-pyrrolo[2,3-b]pyridin-4-yl)amino)cyclobutyl)-N-methylmethanesulfonamide]
- mutagenicity ([1]; TA98 & TA100, with and without metabolic system): not considered to be mutagenic
- increase in the mean number of revertants [1]: did not induce a biologically significant increase
- pharmacological effects in safety screen compared with Ruxolitinib [2]: significantly improved pharmacological effects over Ruxolitinib

Structure (SMILES): CN(CC1CCC1)S(=O)(=O)C[C@H]1C[C@@H](Nc2c(C#N)cnc3[nH]ccc23)C1 [Compound D]
- increase in the mean number of revertants [1]: did not induce a biologically significant increase
- pharmacological effects in safety screen compared with Ruxolitinib [2]: significantly improved pharmacological effects over Ruxolitinib
